US20250215012A1, “IKZF2 DEGRADERS AND USES THEREOF” (REGENTS OF THE UNIVERSITY OF MICHIGAN, priority 2022, published 2025)

Target: IKZF2 (Homo sapiens (Human), UniProt Q96SW2+Q9UKS7)
Assay: IKZF2 HiBiT Assay (Jurkat-IKZF2-HiBiT cell line)
Format: cell-based
Conditions: Jurkat-IKZF2-HiBiT cells, 24 hours; for DC50: read-out: HiBit assay degradation analysis DC50; for Dmax: read-out: HiBit assay degradation analysis Dmax
Description: Degradation of IKZF2 protein is determined by IKZF2 HiBiT assay using the Jurkat-IKZF2-HiBiT (Promega) cell line. Briefly, cells are seeded in culture medium. Compounds are serially diluted in culture medium, and certain volume of the diluted compounds is added to the appropriate well of the plate. After the addition of compounds, the cells are incubated. At the end of treatment, Nano-Glo HiBiT Lytic Detection Reagent (Promega) is added to each well, and then the plates are incubated at room temperature for a certain time period. The luminescent signal is measured using a CALRIOstar plate reader (BMG Labtech). The readings are normalized to the DMSO-treated cells and the IC50 is calculated by nonlinear regression (four parameters sigmoid fitted with variable slope, least squares fit, and no constraint) analysis using the GraphPad Prism 8 software.
Degradation of IKZF2 protein was determined by IKZF2 HiBiT assay using the Jurkat-IKZF2-HiBiT (Promega) cell line. […] Compounds were serially diluted in culture medium, and 20 μl of the diluted compounds were added to the appropriate wells of the plate. After the addition of compounds, the cells were incubated at 37° C. in an atmosphere of 5% CO2 for 24 hours. At the end of treatment, 40 ul of Nano-Glo HiBiT Lytic Detection Reagent (Promega) was added to each well, and then the plates were incubated at room temperature for 10-20 minutes. The luminescent signal was measured using a CALRIOstar plate reader (BMG Labtech). The readings were normalized to the DMSO-treated cells and the IC50 was calculated by nonlinear regression (four parameters sigmoid fitted with variable slope, least squares fit, and no constraint) analysis using the GraphPad Prism 8 software.

Chain of IKZF2 (Q9UKS7 whole entry): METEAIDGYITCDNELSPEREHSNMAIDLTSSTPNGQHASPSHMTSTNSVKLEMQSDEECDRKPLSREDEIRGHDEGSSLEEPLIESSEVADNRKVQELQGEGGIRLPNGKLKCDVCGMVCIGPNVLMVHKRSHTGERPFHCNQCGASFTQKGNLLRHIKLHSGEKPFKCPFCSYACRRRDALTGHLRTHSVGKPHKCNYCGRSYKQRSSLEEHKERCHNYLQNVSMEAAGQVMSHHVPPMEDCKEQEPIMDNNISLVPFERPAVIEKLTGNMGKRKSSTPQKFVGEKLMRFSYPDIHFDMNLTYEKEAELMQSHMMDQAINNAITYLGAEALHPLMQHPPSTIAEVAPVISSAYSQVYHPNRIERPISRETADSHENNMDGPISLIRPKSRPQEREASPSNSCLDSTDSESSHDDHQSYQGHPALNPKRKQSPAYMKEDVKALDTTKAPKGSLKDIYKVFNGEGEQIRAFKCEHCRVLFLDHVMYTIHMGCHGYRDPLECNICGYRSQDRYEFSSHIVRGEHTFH
Chain of IKZF2 (Q96SW2 whole entry): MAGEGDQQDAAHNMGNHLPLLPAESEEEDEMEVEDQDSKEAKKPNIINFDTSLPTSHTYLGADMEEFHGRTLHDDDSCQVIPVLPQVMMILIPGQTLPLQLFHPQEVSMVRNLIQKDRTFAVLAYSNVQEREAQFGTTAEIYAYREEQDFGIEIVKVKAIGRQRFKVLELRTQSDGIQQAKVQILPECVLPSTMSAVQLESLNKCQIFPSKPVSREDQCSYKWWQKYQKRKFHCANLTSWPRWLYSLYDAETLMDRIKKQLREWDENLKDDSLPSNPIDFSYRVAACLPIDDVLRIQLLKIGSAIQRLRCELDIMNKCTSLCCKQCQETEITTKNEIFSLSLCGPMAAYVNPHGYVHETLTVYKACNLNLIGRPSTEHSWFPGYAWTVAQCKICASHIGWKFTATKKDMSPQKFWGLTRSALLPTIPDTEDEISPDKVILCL
Chain of IKZF2 (Q16531 whole entry partner): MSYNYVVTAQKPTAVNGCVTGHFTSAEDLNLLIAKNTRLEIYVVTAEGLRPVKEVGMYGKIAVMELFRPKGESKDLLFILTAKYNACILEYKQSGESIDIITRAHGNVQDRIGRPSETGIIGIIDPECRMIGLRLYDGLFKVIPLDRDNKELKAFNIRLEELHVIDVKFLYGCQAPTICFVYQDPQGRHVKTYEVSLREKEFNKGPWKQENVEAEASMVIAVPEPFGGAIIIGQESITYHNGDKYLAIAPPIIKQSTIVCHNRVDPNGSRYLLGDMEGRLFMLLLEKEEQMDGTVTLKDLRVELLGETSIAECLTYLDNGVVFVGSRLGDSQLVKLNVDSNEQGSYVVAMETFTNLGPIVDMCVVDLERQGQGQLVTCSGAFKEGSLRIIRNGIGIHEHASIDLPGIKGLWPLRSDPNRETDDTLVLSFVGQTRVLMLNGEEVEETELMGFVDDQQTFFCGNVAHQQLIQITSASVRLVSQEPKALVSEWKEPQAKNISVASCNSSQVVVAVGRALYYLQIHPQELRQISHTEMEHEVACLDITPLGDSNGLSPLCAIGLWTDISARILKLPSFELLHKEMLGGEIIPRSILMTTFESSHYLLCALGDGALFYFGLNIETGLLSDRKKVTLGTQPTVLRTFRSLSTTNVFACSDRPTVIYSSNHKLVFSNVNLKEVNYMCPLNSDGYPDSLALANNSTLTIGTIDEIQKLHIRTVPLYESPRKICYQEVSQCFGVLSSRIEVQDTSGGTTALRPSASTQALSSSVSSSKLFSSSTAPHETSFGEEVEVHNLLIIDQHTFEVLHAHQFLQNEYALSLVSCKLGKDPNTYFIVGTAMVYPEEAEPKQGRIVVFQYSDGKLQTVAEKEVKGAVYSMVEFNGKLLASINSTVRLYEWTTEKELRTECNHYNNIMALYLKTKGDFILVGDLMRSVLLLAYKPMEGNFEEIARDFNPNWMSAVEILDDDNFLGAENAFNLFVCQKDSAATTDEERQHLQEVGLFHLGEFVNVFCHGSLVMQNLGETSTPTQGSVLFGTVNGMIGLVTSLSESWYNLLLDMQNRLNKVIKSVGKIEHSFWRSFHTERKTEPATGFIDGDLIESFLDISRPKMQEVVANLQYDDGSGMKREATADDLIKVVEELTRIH

SMILES | DC50 [nM] | Dmax [%]
N#Cc1ccc(-n2cc(CN3CCC4(CC3)COc3c4ccc4c3CN([C@H]3CCC(=O)NC3=O)C4=O)cn2)cc1 [Compound A359, (S)-4-(4-((7-(2,6-dioxopiperidin-3-yl)-6-oxo-7,8-dihydro-2H,6H-spiro[furo[2,3-e]isoindole-3,4′-piperidin]-1′-yl)methyl)-1H-pyrazol-1-yl)benzonitrile] | < 50 | 60 to 80
Cn1nccc1-c1cccc(CN2CCC3(CC2)COc2c3ccc3c2CN(C2CCC(=O)NC2=O)C3=O)c1 (stereo not shown) [Compound A144, 3-(1′-(3-(1-methyl-1H-pyrazol-5-yl)benzyl)-6-oxo-6,8-dihydro-2H,7H-spiro[furo[2,3-e]isoindole-3,4′-piperidin]-7-yl)piperidine-2,6-dione] | 200 to 500 | 40 to 60
O=C1CCC(N2Cc3c(ccc4c3OCC43CCN(C[C@H]4C[C@@H]4c4ccccc4)CC3)C2=O)C(=O)N1 (stereo partly drawn) [Compound A332, 3-(6-oxo-1′-(((1S,2S)-2-phenylcyclopropyl)methyl)-6,8-dihydro-2H,7H-spiro[furo[2,3-e]isoindole-3,4′-piperidin]-7-yl)piperidine-2,6-dione] | > 500 | –
O=C1CCC(N2Cc3c(ccc4c3OCC43CCN(Cc4cc5ccccc5s4)CC3)C2=O)C(=O)N1 (stereo not shown) [Compound A184, 3-(1′-(benzo[b]thiophen-2-ylmethyl)-6-oxo-6,8-dihydro-2H,7H-spiro[furo[2,3-e]isoindole-3,4′-piperidin]-7-yl)piperidine-2,6-dione] | > 500 | < 40
O=C1CCC(N2Cc3c(ccc4c3OCC43CCN(Cc4ccc5cc[nH]c5n4)CC3)C2=O)C(=O)N1 (stereo not shown) [Compound A66, 3-(1′-((1H-pyrrolo[2,3-b]pyridin-6-yl)methyl)-6-oxo-6,8-dihydro-2H,7H-spiro[furo[2,3-e]isoindole-3,4′-piperidin]-7-yl)piperidine-2,6-dione] | > 500 | 40 to 60
O=C1CCC(N2Cc3c(ccc4c3OCC43CCN(Cc4cccc(-c5ccccc5)c4)CC3)C2=O)C(=O)N1 (stereo not shown) [Compound A102, 3-(1′-([1,1′-biphenyl]-3-ylmethyl)-6-oxo-6,8-dihydro-2H,7H-spiro[furo[2,3-e]isoindole-3,4′-piperidin]-7-yl)piperidine-2,6-dione] | 200 to 500 | 40 to 60
O=C1CCC(N2Cc3c(ccc4c3OCC43CCN(Cc4cnn(Cc5ccccc5)c4)CC3)C2=O)C(=O)N1 (stereo not shown) [Compound A209, 3-(1′-((1-benzyl-1H-pyrazol-4-yl)methyl)-6-oxo-6,8-dihydro-2H,7H-spiro[furo[2,3-e]isoindole-3,4′-piperidin]-7-yl)piperidine-2,6-dione] | < 50 | 60 to 80
O=C1CCC(N2Cc3c(ccc4c3OCC43CCN(Cc4cccc(Cn5ccnc5)c4)CC3)C2=O)C(=O)N1 (stereo not shown) [Compound A139, 3-(1′-(3-((1H-imidazol-1-yl)methyl)benzyl)-6-oxo-6,8-dihydro-2H,7H-spiro[furo[2,3-e]isoindole-3,4′-piperidin]-7-yl)piperidine-2,6-dione] | 200 to 500 | 60 to 80
O=C1CC[C@H](N2Cc3c(ccc4c3OCC43CCN(Cc4cccc(-c5cnn([C@@H]6CCOC6)c5)c4)CC3)C2=O)C(=O)N1 [Compound A270, (S)-3-(6-oxo-1′-(3-(1-((R)-tetrahydrofuran-3-yl)-1H-pyrazol-4-yl)benzyl)-6,8-dihydro-2H,7H-spiro[furo[2,3-e]isoindole-3,4′-piperidin]-7-yl)piperidine-2,6-dione] | < 50 | 60 to 80
CC(C)(O)Cn1cc(-c2cccc(CN3CCC4(CC3)COc3c4ccc4c3CN([C@H]3CCC(=O)NC3=O)C4=O)c2)cn1 [Compound A292, (S)-3-(1′-(3-(1-(2-hydroxy-2-methylpropyl)-1H-pyrazol-4-yl)benzyl)-6-oxo-6,8-dihydro-2H,7H-spiro[furo[2,3-e]isoindole-3,4′-piperidin]-7-yl)piperidine-2,6-dione] | < 50 | 60 to 80
O=C1CCC(N2Cc3c(ccc4c3OCC43CCN(Cc4cnn(S(=O)(=O)c5cccc(Cl)c5F)c4)CC3)C2=O)C(=O)N1 [Compound A357, (S)-3-(1′-((1-((3-chloro-2-fluorophenyl)sulfonyl)-1H-pyrazol-4-yl)methyl)-6-oxo-6,8-dihydro-2H,7H-spiro[furo[2,3-e]isoindole-3,4′-piperidin]-7-yl)piperidine-2,6-dione] | < 50 | –
O=C1CC[C@H](N2Cc3c(ccc4c3OCC43CCN(Cc4cnn(CC5C[C@@H]5c5ccccc5)c4)CC3)C2=O)C(=O)N1 (stereo partly drawn) [Compound A347, (S)-3-(6-oxo-1′-((1-(((1S,2S)-2-phenylcyclopropyl)methyl)-1H-pyrazol-4-yl)methyl)-6,8-dihydro-2H,7H-spiro[furo[2,3-e]isoindole-3,4′-piperidin]-7-yl)piperidine-2,6-dione] | < 50 | –
O=C1CCC(N2Cc3c(ccc4c3OCC43CCN(Cc4cnn(S(=O)(=O)c5ccc(Cl)cc5)c4)CC3)C2=O)C(=O)N1 [Compound A352, (S)-3-(1′-((1-((4-chlorophenyl)sulfonyl)-1H-pyrazol-4-yl)methyl)-6-oxo-6,8-dihydro-2H,7H-spiro[furo[2,3-e]isoindole-3,4′-piperidin]-7-yl)piperidine-2,6-dione] | 200 to 500 | –
O=C1CCC(N2Cc3c(ccc4c3OCC43CCN(CC4CCCC(c5ccccc5)C4)CC3)C2=O)C(=O)N1 (stereo not shown) [Compound A181, 3-(6-oxo-1′-((3-phenylcyclohexyl)methyl)-6,8-dihydro-2H,7H-spiro[furo[2,3-e]isoindole-3,4′-piperidin]-7-yl)piperidine-2,6-dione] | 200 to 500 | 40 to 60
CN1CC2(CCN(Cc3cccc(-c4cnn(C)c4)c3)CC2)c2ccc3c(c21)CN(C1CCC(=O)NC1=O)C3=O (stereo not shown) [Compound A308, 3-(1′-methyl-1-(3-(1-methyl-1H-pyrazol-4-yl)benzyl)-6′-oxo-1′,2′,6′,8′-tetrahydro-7′H-spiro[piperidine-4,3′-pyrrolo[3,4-g]indol]-7′-yl)piperidine-2,6-dione] | > 500 | < 40
O=C1CCC(N2Cc3c(ccc4c3OCC43CCN(Cc4cccc5c4CCC5)CC3)C2=O)C(=O)N1 (stereo not shown) [Compound A207, 3-(1′-((2,3-dihydro-1H-inden-4-yl)methyl)-6-oxo-6,8-dihydro-2H,7H-spiro[furo[2,3-e]isoindole-3,4′-piperidin]-7-yl)piperidine-2,6-dione] | > 500 | < 40
O=C1CC[C@H](N2Cc3c(ccc4c3OCC43CCN(CC4CCCN(C(=O)c5ccccc5)C4)CC3)C2=O)C(=O)N1 (stereo partly drawn) [Compound A305, (3S)-3-(1′-((1-benzoylpiperidin-3-yl)methyl)-6-oxo-6,8-dihydro-2H,7H-spiro[furo[2,3-e]isoindole-3,4′-piperidin]-7-yl)piperidine-2,6-dione] | > 500 | 40 to 60
O=C1CCC(N2Cc3c(ccc4c3OCC43CCN(Cc4ccc5cnccc5c4)CC3)C2=O)C(=O)N1 (stereo not shown) [Compound A65, 3-(1′-(isoquinolin-6-ylmethyl)-6-oxo-6,8-dihydro-2H,7H-spiro[furo[2,3-e]isoindole-3,4′-piperidin]-7-yl)piperidine-2,6-dione] | > 500 | 40 to 60
CN(C)S(=O)(=O)c1ccc(CN2CCC3(CC2)COc2c3ccc3c2CN(C2CCC(=O)NC2=O)C3=O)cc1 (stereo not shown) [Compound A210, 4-((7-(2,6-dioxopiperidin-3-yl)-6-oxo-7,8-dihydro-2H,6H-spiro[furo[2,3-e]isoindole-3,4′-piperidin]-1′-yl)methyl)-N,N-dimethylbenzenesulfonamide] | > 500 | < 40
